Test results from patent US20240309014A1, “MACROCYCLIC COMPOUNDS AND USES THEREOF” (President and Fellows of Harvard College, priority 2017, published 2024).

Test system: tubulin protein purified from porcine brain
Test: Cell-free tubulin polymerization assay
Assay type: biochemical
Conditions: final concentrations 0.625-10 μmol/L
Description: Tubulin Polymerization Assay kit was purchased from Cytoskeleton, Inc. (Cat.#BKO11P). The kit contained 1 bottle of lyophilized tubulin protein purified from porcine brain, 3 tubes of lyophilized GTP, 2 bottles of lyophilized assay buffer, and 1 bottle of tubulin glycerol buffer. Assay buffer was prepared by dissolving the contents in 10 mL of deionized and sterilized water. This solution contained 80 mmol/L piperazine-N,N′-bis[2-ethanesulfonic acid] sesquisodium salt, 2.0 mmol/L magnesium chloride, 0.5 mmol/L ethylene glycol-bis(2-amino-ethyl ether) N,N,N′,N-tetra-acetic acid, pH 6.9, and 10 μmol/L fluorescent reporter.
The buffer was stored at −70° C. until use. […]
In the tubulin polymerization assay, reaction mixture was prepared by mixing 820 µL of assay buffer, 17.6 μL of GTP stock solution, and 600 μL of tubulin glycerol buffer. […] Fluorescence emission at 460 nm (excitation wavelength at 360 nm) was measured every 2 minutes for 90 minutes using the SpectraMax® M5e microplate reader (Molecular Devices). Tubulin polymerization was followed by fluorescence enhancement due to the incorporation of a fluorescence reporter into microtubules as polymerization occurred. […]

C=C1C[C@@H]2CC[C@@]34C[C@H]5O[C@H]6[C@@H](O3)[C@H]3O[C@H](CC[C@@H]3O[C@H]6C5O4)CC(=O)O[C@@H]3[C@@H](C)[C@@H]4O[C@@H]5C[C@]6(C[C@@H]7O[C@]8(C[C@H](C)[C@@H]9O[C@H](CN)[C@H](O)C[C@@H]9O8)C[C@H](C)[C@@H]7O6)O[C@@H]5C[C@@H]4O[C@H]3C[C@H]3O[C@@H](CC[C@@H]1O2)C[C@@H](C)C3=C (stereo in doubt) [Compound (1)]
effect on tubulin polymerization: inhibited tubulin polymerization in a concentration-dependent manner
